Entries after “also recorded” stand apart in the source; their conditions may differ. Like-named read-outs stand apart in the source and are kept apart here.
How the values were obtained:
SKOV-3 cells = assay: SRB cell proliferation assay, SKOV-3; format: cell-based; details: Homo sapiens, SK-OV-3
Procedure: (§1) Cell proliferation was assessed using the sulforhodamine B (SRB) assay. Cells seeded in 96-well plate (2,000-3,000 cell/well) were treated with MPL (0, 1, 5, 10, 25, 50 and 100 μmol/L) for 72 h. Cells were then fixed, washed and stained with 100 μl of 0.4% (w/v) SRB dissolved in 1% acetic acid. Unbound dye was removed by five washes with 1% acetic acid before air drying. Bound SRB was solubilized with 100 μl of 10 mM Tris base (pH 10.5) and the absorbance read at 570 nm. Exactly the same procedure was used to assess MPL-SO2. Both agents were dissolved in ethanol and diluted with media to give the final concentrations required for cell culture assays.

cancer cell lines = assay: SRB cell proliferation assay, range of cancer cell lines (general statements); format: cell-based
Procedure: as §1
In brief, MPL and MPL-SO2 were tested in vitro against a wide range of cancer cell-lines with extensively different disease characteristics. For further detailed studies, human ovarian cancer cell lines OVCAR-3 and A2780 were chosen. Additionally, normal human ovarian surface epithelial cells (HOSE) and were cultured in the presence of MPL (0, 5, 10, 25, 50 and 100 μM) for 72 h. Cell viability was assessed using Trypan blue assay (FIG. 9). Similarly, effect of MPL on the growth of normal epithelial, endothelial, embryonic and fetal cells were investigated (FIG. 10) while cell proliferation was assessed using the SRB assay (FIG. 11). Control (vehicle treated) cells were taken to present 100% proliferation and the MPL treated groups are expressed as percentage of control±SEM. Each drug concentration was tested in quadruplicate and each experiment was repeated at least twice. For statistical comparisons, each drug treated group is compared to the control group using Student's t test. To examine concentration dependent drug effect, analysis of variance (ANOVA) was used. P values are: *=<0.05; **<0.01 and ***=<0.001, **** p<0.0001. […] In order to find out if the MPL effect is mediated through the nicotinic acetyl choline receptor and in particular the nACHR7 subtype, cells were pretreated with antagonists and then exposed to MPL (FIG. 12).

[1] = tested on: PARP-1 in OVCAR-3 and A2780 cells; assay: Western blot of PARP and cleaved PARP; format: cell-based, human; details: MPL 0, 5, 10, 25 μM; 24, 48 or 72 h
Procedure: OVCAR-3 and A2780 cells grown under cell culture conditions were incubated with various concentrations of MPL [0, 5, 10, 25 μM] for 24, 48 or 72 hours. Cell lysates were then prepared and analysed by western blotting for the determination of PARP and cleaved PARP.
Exposure of OVCAR-3 or A2780 cells to MPL (0, 5, 10, 25 μM) for 24, 48 or 72 h causes cleavage of PARP, which leads to cellular disassembly and serves as a marker of dying cells.
Protein expression in cells was determined using western blot analysis. After treatment with the indicated concentrations of MPL, cell lysates were prepared and probed with antibodies for cdk2, cdk4, cyclin A, cyclin E, PARP-1 (1:1000 dilutions; Cell Signalling Technology), and p53 (1:200 dilutions; Santa Cruz Biotechnology).
To investigate whether the MPL-induced cell death involves cleavage of PARP, western blot analysis of lysates of MPL-treated cells for PARP-1 and cleaved PARP-1 was carried out. Cleavage of PARP-1 promotes apoptosis by preventing DNA-repair-induced survival.

[2] = tested on: HUVEC (human umbilical vein endothelial cells); assay: SRB cell proliferation assay, HUVEC; format: cell-based
Procedure: as §1

MDA-MB-231 cells = assay: SRB cell proliferation assay, MDA-MB-231; format: cell-based; details: Homo sapiens
Procedure: as §1

1A9 cells = assay: SRB cell proliferation assay, 1A9; format: cell-based; details: Homo sapiens
Procedure: as §1

[3] = tested on: HEK (Human Embryonic Kidney); assay: SRB cell proliferation assay, HEK; format: cell-based
Procedure: as §1

[4] = tested on: Normal cells HOSE, CHO, HEK and HUVEC; assay: Cell viability assay (Trypan blue), normal cells; format: cell-based; details: MPL 0, 5, 10, 25 μmol/L, 72 h
Procedure: Normal cells HOSE, CHO, HEK and HUVEC were cultured in the presence of MPL (0, 5, 10, 25, μmol/L) for 72 h. Effect of MPL on cell viability was assessed using the standard Trypan blue assay. Results are presented as mean±SEM compared to control (100%).
For viability experiments, cells seeded in 6 well plates were exposed to monepantel (MPL) at 0, 1, 10, 50 and 100 μM concentrations for 24, 48 or 72 h. Monepantel (gift by Novartis, Basel, Switzerland) was dissolved in 100% ethanol and then diluted with the cell culture media. At the end of treatment period, cells were washed with PBS, trypsinized and counted using Trypan blue and hemocytometer. All experimental points were set up in quadruplicate and each experiment was performed at least twice.
In brief, MPL and MPL-SO2 were tested in vitro against a wide range of cancer cell-lines with extensively different disease characteristics. For further detailed studies, human ovarian cancer cell lines OVCAR-3 and A2780 were chosen. […] Cell viability was assessed using Trypan blue assay (FIG. 9). Similarly, effect of MPL on the growth of normal epithelial, endothelial, embryonic and fetal cells were investigated (FIG. 10) while cell proliferation was assessed using the SRB assay (FIG. 11). Control (vehicle treated) cells were taken to present 100% proliferation and the MPL treated groups are expressed as percentage of control±SEM. […]

PET cells (mesothelioma) = assay: SRB cell proliferation assay, PET; format: cell-based; details: for IC50: PET
Procedure: as §1

3T3 fibroblast = assay: SRB cell proliferation assay, 3T3; format: cell-based; details: 3T3, fibroblast (Table 2); read-out: IC50 in suppressing proliferation
Procedure: as §1

c-Myc and cyclin D1 = assay: Western blot of c-Myc and cyclin D1 in OVCAR-3 cells; format: cell-based, human; details: 0, 5, 10, 15 and 25 μM MPL for 48 hours
Procedure: In further experiments, after treatment with the indicated concentrations of MPL, cell lysates were prepared and probed with antibodies for c-Myc, cyclin D1, cyclin E, cdk2, cdk4, IGF-1R (Cell Signalling Technology), and (anta Cruz Biotechnology, Australia).

Q: What does the source list for `C[C@](C#N)(COc1cc(C#N)ccc1C(F)(F)F)NC(=O)c1ccc(SC(F)(F)F)cc1` [MPL, N-[(1S)-1-Cyano-2-(5-cyano-2-trifluoromethyl-phenoxy)-1-methyl-ethyl]-4-trifluoromethylsulfanyl-benzamide]?
A: IC50 (SKOV-3 cells; SKOV-3, ovarian cancer (Table 2), read-out: IC50 in suppressing proliferation): 31.2 ± 0.76 µM; IC50 (SKOV-3 cells; SKOV-3, ovarian cancer, 72 h, SRB assay (Table 1), read-out: IC50): 29.3 µM; antiproliferative action on chemo-resistant cell lines (cancer cell lines; ovarian chemo-resistant, glioma temozolimide resistant, breast cancer tamoxifen resistant cells): sensitive; antiproliferative activity, cancer cell lines versus normal cells (cancer cell lines; results of Table 2): high antiproliferative activity in cancer cell lines, whereas, normal cells are far less affected; cleavage of PARP [1]: PARP was cleaved; also recorded: highly induced cleavage of PARP; IC50 ([2]; HUVEC = human umbilical vein endothelial cells (Table 3), read-out: IC50 μM HUVEC): 65 µM; IC50 ([2]; Homo sapiens, HUVEC (Table 2), read-out: IC50 in suppressing proliferation): 87 µM; IC50 ([2]; Homo sapiens, HUVEC, 72 h, SRB assay (Table 1), read-out: IC50): 87.8 µM; IC50 (MDA-MB-231 cells; MDA-MB-231, breast cancer (Table 2), read-out: IC50 in suppressing proliferation): 23.8 ± 0.2 µM; IC50 (MDA-MB-231 cells; MDA-MB-231, breast cancer, 72 h, SRB assay (Table 1), read-out: IC50): 24 µM; IC50 (1A9 cells; 1A9, ovarian cancer (Table 2), read-out: IC50 in suppressing proliferation): 2.5 ± 0.45 µM; IC50 (1A9 cells; 1A9, ovarian cancer, 72 h, SRB assay (Table 1), read-out: IC50): 1.8 µM; IC50 ([3]; HEK (Table 2), read-out: IC50 in suppressing proliferation): 34.6 ± 0.86 µM; IC50 ([3]; HEK, 72 h, SRB assay (Table 1), read-out: IC50): 50.5 µM; viability of normal cells [4]: cancer cell orientated; IC50 (PET cells (mesothelioma); mesothelioma (Table 2), read-out: IC50 in suppressing proliferation): 26 µM; IC50 (PET cells (mesothelioma); mesothelioma, 72 h, SRB assay (Table 1), read-out: IC50): 26.3 µM; replication of PET cells (PET cells (mesothelioma); highly resistant to chemotherapy): profoundly suppressed; IC50 (3T3 fibroblast): 12.4 ± 0.37 µM; c-Myc and cyclin D1 expression (c-Myc and cyclin D1): down-regulation of c-Myc and cyclin D1 expression
